Measurements published in EP0684043A1, “Therapeutic composition for corneal impairment containing a phosphonic acid diester compound” (Senju Pharmaceutical Co., Ltd., priority 1994, dated 1995).
Read-outs that look alike come from different tables or passages of the source.

Columns and labels:
Acute toxicity (LD50) = conditions: rat, in vivo, rats, read-out: LD₅₀
Description: The compound for use as an active ingredient in the therapeutic composition for corneal impairment according to this invention is a very safe substance with an extremely low toxic potential and, as such, can be used with advantage for the purposes of this invention. [e.g. the LD₅₀ values of L-ascorbyl DL-α-tocopheryl phosphate potassium (hereinafter referred to briefly as EPC-K) ≧ 5 g/kg p.o. (rats) and ≧ 100 mg/kg i.v. (rats)].

[1] = system: UV-induced corneal lesions in rabbits; assay: Inhibitory effect on UV-induced corneal lesions in rabbits (fluorescein penetration into cornea, anterior fluorophotometer); format: in vivo, White rabbits; conditions: rabbit cornea
Description: The inhibitory effect of the present compound on UV-induced corneal lesions in rabbits was evaluated. Test substance: L-Ascorbyl DL-α-tocopheryl phosphate potassium (abbreviation: EPC-K). Method: White rabbits were used; 4 animals assigned to the present compound treatment group and 3 assigned to a control group (the nictitating membrane was excised beforehand).
For UV irradiation, Hoya-Schott's HLS200U (dominant wavelength 365 nm) equipped with a 200 W mercury-xenon lamp as the light source was used. Ushio Electric's Unimeter UIT-101 was used for the determination of luminous energy.
One eye of each rabbit was kept open with an eye speculum and set at a distance of 43 cm from the light source so that the irradiation energy would be 0.024 J/cm². The eye was irradiated with ultraviolet light under the conditions of 0.2 mW/cm² and 2 minutes. The fellow eye was protected with an eye patch.
After UV irradiation, the vehicle (2.6% concentrated glycerin solution) was instilled in the eyes of rabbits in the control group 3 times daily and 0.1% EPC-K (dissolved in 2.6% concentrated glycerin solution) was instilled as often into the eyes of rabbits in the present compound treatment group.
The degree of rabbit corneal lesion was evaluated by the following method^1). Using fluorescein as a tracer, the fluorescence intensity of the tracer dye penetrating into the cornea within a predetermined region was measured for a quantitative assessment of the barrier function of the corneal epithelium (The corneal epithelium has a barrier function^2) to restrict penetration of any substance into the deep layer of the cornea and when an erosion or other injury occurs in the corneal epithelium, this barrier function is compromised so that the penetration of the substance into the depth of the cornea is increased). Thus, at 0, 0.5, 6, 12, 24, 48 and 72 hours after UV irradiation, fluorescein sodium was instilled into the eye and the fluorescence intensity of the fluorescein sodium that had penetrated into the cornea was measured with a Kowa anterior fluorophotometer. 1) Norihiko Yokoi et al.: Quantitative evaluation of corneal epithelial barrier function with a new fluorophotometer, Journal of the Eye, 10(8); 1357-1363, 1993 2) Klyce SD and Crosson CE: Transport processes across the rabbit corneal epithelium, a review. Curr Eye Res 4 4;427-432, 1985.

Q: What does the source list for `Cc1c(C)c2c(c(C)c1OP(=O)(O)OC1=C(O)[C@@H]([C@@H](O)CO)OC1=O)CCC(C)(CCCC(C)CCCC(C)CCCC(C)C)O2` (mixture of isomers) [EPC-K, L-ascorbyl DL-α-tocopheryl phosphate potassium]?
A: LD50 (Acute toxicity (LD50); iv): ≥ 100 mg/kg; LD50 (Acute toxicity (LD50); po): ≥ 5000 mg/kg; intensity of fluorescence ([1]; 0 hours after UV irradiation, 0.1% EPC-K in 2.6% concentrated glycerin solution instilled 3 times daily, control group 457): 259; intensity of fluorescence ([1]; 0.5 hours after UV irradiation, 0.1% EPC-K instilled 3 times daily, control group 791): 447; intensity of fluorescence ([1]; 6 hours after UV irradiation, 0.1% EPC-K instilled 3 times daily, control group 899): 695; intensity of fluorescence ([1]; 12 hours after UV irradiation, 0.1% EPC-K instilled 3 times daily, control group 3813): 1038; intensity of fluorescence ([1]; 24 hours after UV irradiation, 0.1% EPC-K instilled 3 times daily, control group 3860): 875; intensity of fluorescence ([1]; 48 hours after UV irradiation, 0.1% EPC-K instilled 3 times daily, control group 870): 343; intensity of fluorescence ([1]; 72 hours after UV irradiation, 0.1% EPC-K instilled 3 times daily, control group 655): 311
